In experiment [1] the test system is Mus musculus. The experiment is described as follows: In vivo increase in life span of drug treated (L1210-bearing) mice administered at a dose of 200 mg/kg/injection. In kind it is functional.
Experiment [2] has as its system L1210. The experiment is described as follows: Concentration required to reduce the growth rate of L-1210 cells to half of the control rate. In kind it is functional. The note with it: Mus musculus, read-out: ID50 (the source's name).
Experiment [3] relates to Mus musculus. The experiment is described as follows: In vivo increase in life span of drug treated (L1210-bearing) mice administered at a dose of 120 mg/kg/injection. In kind it is functional.
The test system of experiment [4] is Mus musculus. The experiment is described as follows: In vivo increase in life span of drug treated (L1210-bearing) mice administered at a dose of 100 mg/kg/injection. In kind it is functional.
Experiment [5] has as its system Mus musculus. Description: In vivo increase in life span of drug treated (L1210-bearing) mice administered at a dose of 600 mg/kg/injection. The format is functional.
The test system of experiment [6] is L1210. The experiment is described as follows: Concentration required to reduce the growth rate of L-1210 cells to half of the control rate; No effect on cell growth of 1E-4 M of the compound. Conditions: Mus musculus. In kind it is functional, cell-based.
For experiment [7], the system named is Mus musculus. Description: In vivo increase in life span of drug treated (L1210-bearing) mice administered at a dose of 8 mg/kg/injection. In kind it is functional.
The test system of experiment [8] is Mus musculus. Description: In vivo increase in life span of drug treated (L1210-bearing) mice administered at a dose of 400 mg/kg/injection. In kind it is functional.
In experiment [9] the test system is Mus musculus. Description: In vivo increase in life span of drug treated (L1210-bearing) mice administered at a dose of 25 mg/kg/injection. In kind it is functional.
Experiment [10] relates to Mus musculus. Description: In vivo increase in life span of drug treated (L1210-bearing) mice administered at a dose of 320 mg/kg/injection. The format is functional.
For experiment [11], the system named is Mus musculus. The experiment is described as follows: In vivo increase in life span of drug treated (P388-bearing) mice administered at a dose of 50 mg/kg/injection. The format is functional.
Experiment [12] deals with Mus musculus. The experiment is described as follows: In vivo increase in life span of drug treated (P388-bearing) mice administered at a dose of 200 mg/kg/injection. In kind it is functional.

The text below walks through data of ChEMBL document CHEMBL1121578, “Synthesis of certain [6:5:6] linear tricyclic nucleosides as potential antitumor agents” (1980).

The structures appear in SMILES notation. Where only a bound is given, the exact number is not on record here.

For `C=CCSc1ncnc2c1c1c(N)ncnc1n2C1O[C@H](CO)[C@@H](O)[C@H]1O` (stereo partly specified), in the experiment with Mus musculus [1], the ILS at 200 mg/kg stood at 9%. In addition, in the experiment with L1210 [2], the IC50 was 110 µM.
As for `CSc1nc(O)c2c3c(N)ncnc3n(C3O[C@H](CO)[C@@H](O)[C@H]3O)c2n1` (stereo partly specified), in the experiment on Mus musculus [1], the ILS at 200 mg/kg was 0%. Further, the IC50 in the experiment with L1210 [2] came out at 80 µM.
Turning to `NC(=O)c1c(N)n(C2O[C@H](CO)[C@@H](O)[C@H]2O)c2ncnc(N)c12` (stereo partly specified), the ILS at 120 mg/kg in the experiment on Mus musculus [3] is 30%. The IC50 in the experiment on L1210 [2] was 16 µM.
Turning to `Nc1ncnc2c1c1c(S)ncnc1n2C1O[C@H](CO)[C@@H](O)[C@H]1O` (stereo partly specified), the ILS at 100 mg/kg in the experiment with Mus musculus [4] is 38%. The IC50 in the experiment with L1210 [2] amounted to 2 µM.
In the case of `Nc1ncnc2c1c1c(N)nc(O)nc1n2C1O[C@H](CO)[C@@H](O)[C@H]1O` (stereo partly specified), the ILS at 200 mg/kg with Mus musculus [1] amounted to 21%. In addition, the IC50 in the experiment with L1210 [2] worked out at 120 µM.
On to `Nc1ncnc2c1c1c(SCc3ccc([N+](=O)[O-])cc3)ncnc1n2C1O[C@H](CO)[C@@H](O)[C@H]1O` (stereo partly specified), for which, in the experiment with Mus musculus [1], the ILS at 200 mg/kg is -2%. Besides, the IC50 with L1210 [2] is 45 µM.
`N#Cc1c(Br)n(C2O[C@H](CO)[C@@H](O)[C@H]2O)c2ncnc(N)c12` (stereo partly specified): the ILS at 600 mg/kg in the experiment with Mus musculus [5] was 22%. For the same compound, in the experiment with L1210 [2], the IC50 came to 0.21 µM.
For the compound `Nc1ncnc2c1c1c(N)ncnc1n2[C@@H]1O[C@H](CO)[C@@H](O)[C@H]1O`, the ID50 result in the experiment with L1210 [6] is “No effect”. In addition, in the experiment on Mus musculus [4], the ILS at 100 mg/kg is -9%.
For the compound `N#Cc1c(N)n(C2O[C@H](CO)[C@@H](O)[C@H]2O)c2ncnc(N)c12` (stereo partly specified), the ILS at 8 mg/kg in the experiment with Mus musculus [7] turned out to be 26%. The IC50 in the experiment with L1210 [2] was found to be 0.18 µM.
On to `Nc1ncnc2c1c1c(S)nc(S)nc1n2C1O[C@H](CO)[C@@H](O)[C@H]1O` (stereo partly specified), for which, in the experiment with Mus musculus [8], the ILS at 400 mg/kg came to 10%. The IC50 in the experiment with L1210 [2] amounted to 6.1 µM.
As to `CSc1nc(O)nc2c1c1c(N)ncnc1n2C1O[C@H](CO)[C@@H](O)[C@H]1O` (stereo partly specified), in the experiment with L1210 [6], the ID50 entry was “No effect”. Further, the ILS at 200 mg/kg in the experiment with Mus musculus [1] was 4%.
Regarding `Nc1nc2c(c(=O)[nH]1)c1c(N)ncnc1n2[C@@H]1O[C@H](CO)[C@@H](O)[C@H]1O`, the ILS at 200 mg/kg in the experiment on Mus musculus [1] was found to be 13%. In addition, in the experiment with L1210 [2], the IC50 came to 2.5 µM.
Regarding `Nc1ncnc2c1c1c(=S)[nH]c(=O)[nH]c1n2C1O[C@H](CO)[C@@H](O)[C@H]1O` (stereo partly specified), the ILS at 100 mg/kg with Mus musculus [4] was 4%. Moreover, the IC50 with L1210 [2] is 11 µM.
Take `NC(=S)c1c(N)n(C2O[C@H](CO)[C@@H](O)[C@H]2O)c2ncnc(N)c12` (stereo partly specified): the ILS at 25 mg/kg with Mus musculus [9] was determined as 37%. The IC50 in the experiment on L1210 [2] was found to be 0.22 µM.
In the case of `CSc1nc(N)c2c3c(N)ncnc3n(C3O[C@H](CO)[C@@H](O)[C@H]3O)c2n1` (stereo partly specified), the ID50 entry in the experiment on L1210 [6] was “No effect”. In addition, the ILS at 400 mg/kg in the experiment on Mus musculus [8] was found to be 1%.
For `CSc1nc(SC)c2c3c(N)ncnc3n(C3O[C@H](CO)[C@@H](O)[C@H]3O)c2n1` (stereo partly specified), the ILS at 200 mg/kg in the experiment on Mus musculus [1] was determined as 45%. Besides, in the experiment on L1210 [2], the IC50 was 78 µM.
Take `Nc1ncnc2c1c1c(O)nc(O)nc1n2C1O[C@H](CO)[C@@H](O)[C@H]1O` (stereo partly specified): in the experiment with Mus musculus [8], the ILS at 400 mg/kg stood at 108%. Besides, the IC50 in the experiment on L1210 [2] was ~100 µM.
On to `Nc1ncnc2c1c1cnc(O)nc1n2C1O[C@H](CO)[C@@H](O)[C@H]1O` (stereo partly specified), for which the ILS at 320 mg/kg with Mus musculus [10] was found to be 10%. In the experiment on L1210 [2], the IC50 worked out at 75 µM.
For `Nc1ncnc2c1c1c(O)ncnc1n2C1O[C@H](CO)[C@@H](O)[C@H]1O` (stereo partly specified), the ILS at 50 mg/kg with Mus musculus [11] is 33%. Besides, the ILS at 100 mg/kg with Mus musculus [4] came to 20%. Besides, the IC50 in the experiment on L1210 [2] came out at 63 µM.
Consider `CSc1ncnc2c1c1c(N)ncnc1n2C1O[C@H](CO)[C@@H](O)[C@H]1O` (stereo partly specified), for which the ILS at 200 mg/kg in the experiment with Mus musculus [1] worked out at 9%; with Mus musculus [12] it was 5%. Also, in the experiment on L1210 [2], the IC50 was determined as 8.6 µM.
With `Nc1ncnc2c1c1cncnc1n2C1O[C@H](CO)[C@@H](O)[C@H]1O` (stereo partly specified), the ILS at 200 mg/kg in the experiment on Mus musculus [1] stood at 2%. In addition, the IC50 in the experiment with L1210 [2] is > 100 µM.
Regarding `Nc1ncnc2c1c1c(O)nc(S)nc1n2C1O[C@H](CO)[C@@H](O)[C@H]1O` (stereo partly specified), the ILS at 400 mg/kg with Mus musculus [8] stood at 14%. In addition, the IC50 in the experiment on L1210 [2] amounted to 7 µM.
